A short description of series [1]: plasma pharmacokinetics after oral and intravenous administration. Type of series: in vivo, Sprague-Dawley (SD) rats. The settings on record: both, Sprague-Dawley, rat.
Series [2] concerns the target CYP2D6 (Homo sapiens, UniProt P10635). The series is described as follows: metabolism in recombinant human CYP450 enzymes. The format is in vitro ADME. The conditions noted are these: DL0410 10 µM; recombinant CYP1A2, CYP2C9, CYP2D6, CYP3A4; 37°C, 2 h.
Series [3] deals with APP/PS1 transgenic mice. The settings on record: cited from earlier work.
Series [4] deals with Aβ1-42-induced amnesia in mice. The conditions noted are these: cited from earlier work.
Series [5] relates to AChE. The conditions noted are these: read-out: IC50, inhibition of AChE; in vitro; cited from earlier work.
Series [6] has as its system BChE. The settings on record: read-out: IC50, inhibition of BChE; in vitro; cited from earlier work.
Series [7] can be described thus: concentration in entorhinal cortex and hippocampus after oral administration. Type of series: in vivo, Sprague-Dawley (SD) rats.
A short description of series [8]: cumulative excretion in bile, urine and feces. The format is in vivo, Sprague-Dawley (SD) rats. The conditions noted are these: oral 100 mg/kg.

What is called Tmax is the time from dosing to the highest level. What is called half-life is the time needed for the level to fall by half in the phase considered. For orientation: Cmax means the highest concentration seen after dosing. For orientation: AUC(0-t) means exposure summed from dosing to a finite time, without extrapolation to infinity. A high value points to more exposure. Broadly, the IC50 is the midpoint of a concentration-inhibition curve.

Chain of CYP2D6 (P10635 whole entry): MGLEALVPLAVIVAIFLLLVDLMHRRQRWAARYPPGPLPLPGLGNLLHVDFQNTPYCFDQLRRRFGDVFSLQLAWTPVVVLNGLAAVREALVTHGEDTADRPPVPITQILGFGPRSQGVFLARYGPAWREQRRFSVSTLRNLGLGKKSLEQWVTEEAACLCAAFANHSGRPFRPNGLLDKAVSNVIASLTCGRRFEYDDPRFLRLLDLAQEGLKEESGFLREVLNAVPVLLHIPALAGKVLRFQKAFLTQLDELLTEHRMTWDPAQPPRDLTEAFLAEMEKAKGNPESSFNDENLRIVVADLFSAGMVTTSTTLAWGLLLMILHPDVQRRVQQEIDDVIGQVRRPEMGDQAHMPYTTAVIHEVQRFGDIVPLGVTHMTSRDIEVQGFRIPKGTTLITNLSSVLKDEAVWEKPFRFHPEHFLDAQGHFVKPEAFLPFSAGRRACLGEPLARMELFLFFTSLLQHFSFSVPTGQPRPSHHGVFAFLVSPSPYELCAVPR

Regarding `Cl.Cl.O=C(CCN1CCCCC1)c1ccc(-c2ccc(C(=O)CCN3CCCCC3)cc2)cc1` [DL0410, 1,1′-([1,1′-biphenyl]-4,4′-diyl)bis(3-(piperidin-1-yl)propan-1-one) dihydrochloride], the Tmax is approximately 0.75 h in series [1]; approximately 6 h in series [7] (both, Sprague-Dawley, rat, entorhinal cortex and hippocampus, po, 100 mg/kg). Also, in series [1], the half-life was in the range of 6.05 to 8.23 h. For the same compound, the highest concentration (Cmax) in series [1] (25 mg/kg) was 21.5 ± 3.46 ng/mL; in series [1] (50 mg/kg), 56.1 ± 4.01 ng/mL; in series [1] (100 mg/kg), 196 ± 46.8 ng/mL; in series [7] (both, Sprague-Dawley, rat, entorhinal cortex, po, 100 mg/kg) it was 46.2 ± 13.2 ng/mL; in series [7] (both, Sprague-Dawley, rat, hippocampus, po, 100 mg/kg), 50.3 ± 6.92 ng/mL. The compound also returned an exposure AUC(0-t) in series [1] (50 mg/kg) of 239 ± 63 ng·h/mL. In series [2], the “CYP450 isoform involved in the reduction reaction” value is on record as “CYP2D6 was identified to be involved in the reduction of the carbonyl group”. In series [3], the “improvement of memory deficits” value was “improve memory deficits in APP/PS1 transgenic mice”. In addition, in series [4], the “improvement of Aβ1-42-induced amnesia” value is “improve memory deficits”. Besides, the values for the IC50 in series [5] and in series [6] were 286 ± 4 nM and 3960 ± 99 nM, respectively. In series [7] (rats, oral 100 mg/kg, detectable level in EC and HIP), the “crossing of the blood-brain barrier” value was “able to cross the blood-brain barrier”. Besides, the “accumulated excretion in bile” value in series [8] (rat bile, for 36 h) is recorded as 0.010 % of the dose. In addition, the cumulative fecal excretion in series [8] (rat feces) turned out to be 34.71%. Further, in series [8] (rat urine, in 72 h), the cumulative urinary excretion is reported as 0.086 % of the dose.
